In patent US20260191968A1, “PROTAC DEGRADERS OF MLLT1 AND/OR MLLT3” (DARK BLUE THERAPEUTICS LTD, priority 2024, published 2026):

Assays:
MLLT1 = biological target: T1, MLLT1 (Homo sapiens, UniProt Q03111); assay: MLLT1 degradation assay in MV4-11 cells (JESS chemiluminescent detection), three concentrations, 24 h; format: cell-based; conditions: with respect to DMSO control
T1 construct: host or cells: MV4-11
T1 sequence (Q03111 1-559): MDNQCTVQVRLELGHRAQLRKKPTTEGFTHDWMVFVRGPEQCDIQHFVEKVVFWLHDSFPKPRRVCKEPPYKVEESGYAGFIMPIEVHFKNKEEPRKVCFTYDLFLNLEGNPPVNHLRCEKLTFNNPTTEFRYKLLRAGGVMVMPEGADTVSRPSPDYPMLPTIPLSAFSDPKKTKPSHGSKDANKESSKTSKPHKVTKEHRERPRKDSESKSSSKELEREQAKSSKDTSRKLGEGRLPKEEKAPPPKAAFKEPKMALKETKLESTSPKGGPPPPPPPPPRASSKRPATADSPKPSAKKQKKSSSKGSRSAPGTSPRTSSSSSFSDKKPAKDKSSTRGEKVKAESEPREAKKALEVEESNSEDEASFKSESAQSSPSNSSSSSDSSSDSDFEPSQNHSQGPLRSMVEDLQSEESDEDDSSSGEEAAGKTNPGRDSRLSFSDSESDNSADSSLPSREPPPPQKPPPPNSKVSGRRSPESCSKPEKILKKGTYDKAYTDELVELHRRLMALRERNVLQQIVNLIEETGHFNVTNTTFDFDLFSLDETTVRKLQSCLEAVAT
Summary of the method: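 MV4-11 cells treated 24 h at 37° C, 5% CO2 with 1000, 100 and 10 nM compound (0.1% DMSO final). MLLT1 quantified by automated capillary chemiluminescent immunodetection; band peak area expressed as % degradation relative to DMSO control.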

MV4-11 cells = assay: MV4-11 cellular proliferative assay, Assay Format B (CTG 2.0, 168 h); format: cell-based; conditions: Homo sapiens, 168 h (7 days), CTG 2.0, read-out: IC50 (MV4-11 cellular proliferative assay, Assay format B)
Summary of the method: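 MV4-11 cells seeded overnight in IMDM + 10% FBS, then exposed to 10-point, 3-fold dilutions from 1 uM or 100 nM top concentration (0.3% DMSO final) for 168 h at 37 °C. CTG 2.0 luminescence read; % viability vs DMSO control fitted by four-parameter logistic regression.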

Structure (SMILES) | MLLT1% Degradation @ 0.01 μM (MLLT1) | MLLT1% Degradation @ 0.1 μM (MLLT1) | MLLT1% Degradation @ 1 μM (MLLT1) | IC50 (MV4-11 cells) [nM]
CN1CCC[C@@H]1c1cc2cnc(NC(=O)c3ccc(N4CCC(OCC5CCN(c6cccc7c6CN(C6CCC(=O)NC6=O)C7=O)CC5)CC4)nc3)cc2[nH]1 (stereo partly drawn) [Example 147, 6-(4-((1-(2-(2,6-dioxopiperidin-3-yl)-1-oxoisoindolin-4-yl)piperidin-4-yl)methoxy)piperidin-1-yl)-N-(2-((R)-1-methylpyrrolidin-2-yl)-1H-pyrrolo[3,2-c]pyridin-6-yl)nicotinamide] | A (Category A: A ≥ 75% degradation) | A (Category A: A ≥ 75% degradation) | A (Category A: A ≥ 75% degradation) | ≤ 100
CN1CCC[C@@H]1c1cc2cnc(NC(=O)c3ccc(N4CCC(OC5CCN(c6cccc7c6C(=O)N(C6CCC(=O)NC6=O)C7=O)CC5)CC4)nc3)cc2[nH]1 (stereo partly drawn) [Example 148, 6-(4-((1-(2-(2,6-dioxopiperidin-3-yl)-1,3-dioxoisoindolin-4-yl)piperidin-4-yl)oxy)piperidin-1-yl)-N-(2-((R)-1-methylpyrrolidin-2-yl)-1H-pyrrolo[3,2-c]pyridin-6-yl)nicotinamide] | A (Category A: A ≥ 75% degradation) | A (Category A: A ≥ 75% degradation) | A (Category A: A ≥ 75% degradation) | ≤ 100
CN1CCC[C@@H]1c1cc2cnc(NC(=O)c3ccc(N4CCN(CCCC#Cc5cccc6c5CN(C5CCC(=O)NC5=O)C6=O)CC4)nc3)cc2[nH]1 (stereo partly drawn) [Example 149, 6-(4-(5-(2-(2,6-dioxopiperidin-3-yl)-1-oxoisoindolin-4-yl)pent-4-yn-1-yl)piperazin-1-yl)-N-(2-((R)-1-methylpyrrolidin-2-yl)-1H-pyrrolo[3,2-c]pyridin-6-yl)nicotinamide] | A (Category A: A ≥ 75% degradation) | A (Category A: A ≥ 75% degradation) | A (Category A: A ≥ 75% degradation) | ≤ 100
CN1CCC[C@@H]1c1cc2cnc(NC(=O)c3ccc(OCCCC#Cc4cccc5c4CN(C4CCC(=O)NC4=O)C5=O)nc3)cc2[nH]1 (stereo partly drawn) [Example 150, 6-((5-(2-(2,6-dioxopiperidin-3-yl)-1-oxoisoindolin-4-yl)pent-4-yn-1-yl)oxy)-N-(2-((R)-1-methylpyrrolidin-2-yl)-1H-pyrrolo[3,2-c]pyridin-6-yl)nicotinamide] | A (Category A: A ≥ 75% degradation) | A (Category A: A ≥ 75% degradation) | A (Category A: A ≥ 75% degradation) | ≤ 100
CN1CCC[C@@H]1c1cc2cnc(NC(=O)c3ccc(N4CCC(CC#Cc5cccc6c5CN(C5CCC(=O)NC5=O)C6=O)CC4)nn3)cc2[nH]1 (stereo partly drawn) [Example 153, 6-(4-(3-(2-(2,6-dioxopiperidin-3-yl)-1-oxoisoindolin-4-yl)prop-2-yn-1-yl)piperidin-1-yl)-N-(2-((R)-1-methylpyrrolidin-2-yl)-1H-pyrrolo[3,2-c]pyridin-6-yl)pyridazine-3-carboxamide] | A (Category A: A ≥ 75% degradation) | A (Category A: A ≥ 75% degradation) | A (Category A: A ≥ 75% degradation) | ≤ 100
CN1CCC[C@@H]1c1cc2cnc(NC(=O)c3cnc(N4CCC(CC#Cc5cccc6c5CN(C5CCC(=O)NC5=O)C6=O)CC4)cn3)cc2[nH]1 (stereo partly drawn) [Example 154, 5-(4-(3-(2-(2,6-dioxopiperidin-3-yl)-1-oxoisoindolin-4-yl)prop-2-yn-1-yl)piperidin-1-yl)-N-(2-((R)-1-methylpyrrolidin-2-yl)-1H-pyrrolo[3,2-c]pyridin-6-yl)pyrazine-2-carboxamide] | A (Category A: A ≥ 75% degradation) | A (Category A: A ≥ 75% degradation) | A (Category A: A ≥ 75% degradation) | ≤ 100
CN1CCC[C@@H]1c1cc2cnc(NC(=O)c3ccc(N4CCN(CC#Cc5cccc6c5CN(C5CCC(=O)NC5=O)C6=O)CC4)cc3F)cc2[nH]1 (stereo partly drawn) [Example 155, 4-(4-(3-(2-(2,6-dioxopiperidin-3-yl)-1-oxoisoindolin-4-yl)prop-2-yn-1-yl)piperazin-1-yl)-2-fluoro-N-(2-((R)-1-methylpyrrolidin-2-yl)-1H-pyrrolo[3,2-c]pyridin-6-yl)benzamide] | A (Category A: A ≥ 75% degradation) | A (Category A: A ≥ 75% degradation) | B (Category B: 50% ≤ B < 75% degradation) | ≤ 100
CN1CCC[C@@H]1c1cc2cnc(NC(=O)c3cc(F)c(CCCCC#Cc4cccc5c4CN(C4CCC(=O)NC4=O)C5=O)c(F)c3)cc2[nH]1 (stereo partly drawn) [Example 156, 4-(6-(2-(2,6-dioxopiperidin-3-yl)-1-oxoisoindolin-4-yl)hex-5-yn-1-yl)-3,5-difluoro-N-(2-((R)-1-methylpyrrolidin-2-yl)-1H-pyrrolo[3,2-c]pyridin-6-yl)benzamide] | A (Category A: A ≥ 75% degradation) | A (Category A: A ≥ 75% degradation) | A (Category A: A ≥ 75% degradation) | ≤ 100
CN1CCC[C@@H]1c1cc2cnc(NC(=O)c3ccc(OC4CN(CC5CCN(c6ccc7c(c6)C(=O)N(C6CCC(=O)NC6=O)C7=O)CC5)C4)cc3)cc2[nH]1 (stereo partly drawn) [Example 157, 4-((1-((1-(2-(2,6-dioxopiperidin-3-yl)-1,3-dioxoisoindolin-5-yl)piperidin-4-yl)methyl)azetidin-3-yl)oxy)-N-(2-((R)-1-methylpyrrolidin-2-yl)-1H-pyrrolo[3,2-c]pyridin-6-yl)benzamide] | B (Category B: 50% ≤ B < 75% degradation) | A (Category A: A ≥ 75% degradation) | A (Category A: A ≥ 75% degradation) | ≤ 100
CN1CCC[C@@H]1c1cc2cnc(NC(=O)c3ccc(OCCC4CCN(c5cccc6c5CN(C5CCC(=O)NC5=O)C6=O)CC4)nc3)cc2[nH]1 (stereo partly drawn) [Example 158, 6-(2-(1-(2-(2,6-dioxopiperidin-3-yl)-1-oxoisoindolin-4-yl)piperidin-4-yl)ethoxy)-N-(2-((R)-1-methylpyrrolidin-2-yl)-1H-pyrrolo[3,2-c]pyridin-6-yl)nicotinamide] | A (Category A: A ≥ 75% degradation) | A (Category A: A ≥ 75% degradation) | A (Category A: A ≥ 75% degradation) | ≤ 100
CN1CCC[C@@H]1c1cc2cnc(NC(=O)c3ccc(OCC4CCN(c5cccc6c5CN(C5CCC(=O)NC5=O)C6=O)CC4)cc3)cc2[nH]1 (stereo partly drawn) [Example 159, 4-((1-(2-(2,6-dioxopiperidin-3-yl)-1-oxoisoindolin-4-yl)piperidin-4-yl)methoxy)-N-(2-((R)-1-methylpyrrolidin-2-yl)-1H-pyrrolo[3,2-c]pyridin-6-yl)benzamide] | A (Category A: A ≥ 75% degradation) | A (Category A: A ≥ 75% degradation) | A (Category A: A ≥ 75% degradation) | ≤ 100
C[C@@H]1CN(CC2CCN(c3cccc4c3CN(C3CCC(=O)NC3=O)C4=O)CC2)CCN1c1ccc(C(=O)Nc2cc3[nH]c([C@H]4CCCN4C)cc3cn2)cn1 (stereo partly drawn) [Example 163, 6-((2R)-4-((1-(2-(2,6-dioxopiperidin-3-yl)-1-oxoisoindolin-4-yl)piperidin-4-yl)methyl)-2-methylpiperazin-1-yl)-N-(2-((R)-1-methylpyrrolidin-2-yl)-1H-pyrrolo[3,2-c]pyridin-6-yl)nicotinamide] | A (Category A: A ≥ 75% degradation) | A (Category A: A ≥ 75% degradation) | A (Category A: A ≥ 75% degradation) | ≤ 100
CN1CCC[C@@H]1c1cc2cnc(NC(=O)c3ccc(OCCN4CCC5(CC4)CCN(c4ccc6c(c4)CN(C4CCC(=O)NC4=O)C6=O)CC5)cc3)cc2[nH]1 (stereo partly drawn) [Example 164, 4-(2-(9-(2-(2,6-dioxopiperidin-3-yl)-1-oxoisoindolin-5-yl)-3,9-diazaspiro[5.5]undecan-3-yl)ethoxy)-N-(2-((R)-1-methylpyrrolidin-2-yl)-1H-pyrrolo[3,2-c]pyridin-6-yl)benzamide] | A (Category A: A ≥ 75% degradation) | A (Category A: A ≥ 75% degradation) | A (Category A: A ≥ 75% degradation) | ≤ 100
